# In patent US12097173B2, “Volatile organic compound formulations having antimicrobial activity” (priority 2019, dated 2024):
# Experiments:
# Type in all cases: cell-based
# Candida albicans = assay: plate bioassay of volatile test mixtures, relative growth of streak; conditions: relative growth after 30 hr at 22° C.; esters with 1:1 v/v propanoic acid and isobutryic acid (7:2 v/v), 9 ul; acids 7 ul
# Procedure: (§1) FIG. 1 illustrates a plate bioassay to determine the bioactivity of various esters when combined with a 1:1 mix of the two organic acids as per Table 2. The test organisms were as follows—Cercospora (dark-lower left bottom) then clockwise—Phytophthora, Verticillium, Sclerotinia, Pythium. Fusarium, Trichoderma, Rhizoctonia, and Aspergillus. The streaks were Saccharomyces (far right bottom) then Candida, E coli and Bacillus (left bottom). A=control plate, and B=plate with System 1 after incubation for 30 hr.
# (§2) FIG. 9 depicts the biological activities of various test mixtures against a panel of test microbes. A small plug of each organism was placed in the periphery of the PDA plate. In the center well was placed the test solution in the plastic cup holder. A control plate (A) was also set up. After 30 hr the growth of the test organisms was compared to that of the control and the % inhibition was calculated. The (B) plate contained the test mixture. Measurements were made 30 hr after plate set up.
# (§3) FIG. 1. Indicates how the assays were done to yield the data sets in Table 1. The various esters were combined with a 1:1 mixture of propanoic acid and isobutryic acid and these were added 7:2 V/V with the ester to be tested.
# (§4) Shown in Table 1, are the inhibition and killing effects of propanoic acid, and isobutryic acid together and alone and with various esters. The tests were conducted over the course of 30 hr at 22° C. Measurements were made on appropriate controls and thus the percentage of inhibition calculations could be made on treatments vs the growth on a control organism (non-treated). The bacteria and yeast like organisms were evaluated on the basis of relative growth rates after 30 hr. Those highlighted areas on the table show those compounds (esters) having the most compatibility with propanoic and isobutryic acid 1:1 v/v mixtures with the appropriate esters at a 7:2 ratio—Systems 1 and 2 above. It is from this test that Systems 1 and 2 were discovered. The acids were added at […] individually and combination of the esters with the acids were added at the […] in the plate assay.
# as §2, with “Tests were conducted as similarly described for Systems 1 and 2 above (FIG. 9) to ascertain” for “FIG. 9 depicts”
# Escherichia coli = assay: as above; conditions: relative growth after 30 hr at 22° C.; esters with 1:1 v/v propanoic acid and isobutryic acid (7:2 v/v), 9 ul; acids 7 ul
# Procedure: as §1, §2, §3, §4
# as §2, with “Tests were conducted as similarly described for Systems 1 and 2 above (FIG. 9) to ascertain” for “FIG. 9 depicts”
# Saccharomyces cerevicae = assay: as above; conditions: relative growth after 30 hr at 22° C.; esters with 1:1 v/v propanoic acid and isobutryic acid (7:2 v/v), 9 ul; acids 7 ul
# Procedure: as §1, §2, §3, §4
# as §2, with “Tests were conducted as similarly described for Systems 1 and 2 above (FIG. 9) to ascertain” for “FIG. 9 depicts”
# Bacillus subtilus = assay: as above; conditions: relative growth after 30 hr at 22° C.; esters with 1:1 v/v propanoic acid and isobutryic acid (7:2 v/v), 9 ul; acids 7 ul
# Procedure: as §1, §2, §3, §4
# as §2, with “Tests were conducted as similarly described for Systems 1 and 2 above (FIG. 9) to ascertain” for “FIG. 9 depicts”
# Sclerotinia sclerotiorum = assay: plate bioassay of volatile test mixtures, growth inhibition; conditions: 30 hr at 22° C.; esters with 1:1 v/v propanoic acid and isobutryic acid (acids to ester 7:2 v/v), 9 ul; acids 7 ul
# Procedure: as §1, §2, §3
# The tests were conducted over the course of 30 hr at 22° C. Measurements were made on appropriate controls and thus the percentage of inhibition calculations could be made on treatments vs the growth on a control organism (non-treated). The bacteria and yeast like organisms were evaluated on the basis of relative growth rates after 30 hr. […] The acids were added at […] individually and combination of the esters with the acids were added at the […] in the plate assay.
# as §2, with “Tests were conducted as similarly described for Systems 1 and 2 above (FIG. 9) to ascertain” for “FIG. 9 depicts”
# Rhizoctonia solani = assay: as above; conditions: 30 hr at 22° C.; esters with 1:1 v/v propanoic acid and isobutryic acid (acids to ester 7:2 v/v), 9 ul; acids 7 ul
# Procedure: as §1, §2, §3, §4
# as §2, with “Tests were conducted as similarly described for Systems 1 and 2 above (FIG. 9) to ascertain” for “FIG. 9 depicts”
# Phytophthora cinnamomi = assay: as above; conditions: 30 hr at 22° C.; esters with 1:1 v/v propanoic acid and isobutryic acid (acids to ester 7:2 v/v), 9 ul; acids 7 ul
# Procedure: as §1, §2, §3, §4
# as §2, with “Tests were conducted as similarly described for Systems 1 and 2 above (FIG. 9) to ascertain” for “FIG. 9 depicts”
# Verticillium dahliae = assay: as above; conditions: 30 hr at 22° C.; esters with 1:1 v/v propanoic acid and isobutryic acid (acids to ester 7:2 v/v), 9 ul; acids 7 ul
# Procedure: as §1, §2, §3, §4
# as §2, with “Tests were conducted as similarly described for Systems 1 and 2 above (FIG. 9) to ascertain” for “FIG. 9 depicts”
# Trichoderma viridae = assay: as above; conditions: 30 hr at 22° C.; esters with 1:1 v/v propanoic acid and isobutryic acid (acids to ester 7:2 v/v), 9 ul; acids 7 ul
# Procedure: as §1, §2, §3, §4
# as §2, with “Tests were conducted as similarly described for Systems 1 and 2 above (FIG. 9) to ascertain” for “FIG. 9 depicts”
# Cercospora beticola = assay: as above; conditions: 30 hr at 22° C.; esters with 1:1 v/v propanoic acid and isobutryic acid (acids to ester 7:2 v/v), 9 ul; acids 7 ul
# Procedure: as §1, §2, §3, §4
# as §2, with “Tests were conducted as similarly described for Systems 1 and 2 above (FIG. 9) to ascertain” for “FIG. 9 depicts”
# Pythium ultimum = assay: as above; conditions: 30 hr at 22° C.; esters with 1:1 v/v propanoic acid and isobutryic acid (acids to ester 7:2 v/v), 9 ul; acids 7 ul
# Procedure: as §1, §2, §3, §4
# as §2, with “Tests were conducted as similarly described for Systems 1 and 2 above (FIG. 9) to ascertain” for “FIG. 9 depicts”
# Aspergillus fumigatus = assay: as above; conditions: 30 hr at 22° C.; esters with 1:1 v/v propanoic acid and isobutryic acid (acids to ester 7:2 v/v), 9 ul; acids 7 ul
# Procedure: as §1, §3, §4
# Fusarium subglutinans = assay: as above; conditions: 30 hr at 22° C.; esters with 1:1 v/v propanoic acid and isobutryic acid (acids to ester 7:2 v/v), 9 ul; acids 7 ul
# Procedure: as §1, §3, §4
Compound,growth of Candida albicans (Candida albicans),growth of Escherichia coli (Escherichia coli),growth of Saccharomyces cerevicae (Saccharomyces cerevicae),growth of Bacillus subtilus (Bacillus subtilus),inhibition of Sclerotinia sclerotiorum (Sclerotinia sclerotiorum) [%],inhibition of Rhizoctonia solani (Rhizoctonia solani) [%],inhibition of Phytophthora cinnamomi (Phytophthora cinnamomi) [%],inhibition of Verticillium dahliae (Verticillium dahliae) [%],inhibition of Trichoderma viridae (Trichoderma viridae) [%],inhibition of Cercospora beticola (Cercospora beticola) [%],inhibition of Pythium ultimum (Pythium ultimum) [%],inhibition of Aspergillus fumigatus (Aspergillus fumigatus) [%],inhibition of Fusarium subglutinans (Fusarium subglutinans) [%]
CCCCOC(=O)C(C)C [Butyl Isobutyrate],Growth Observed,No Growth,Growth Observed,No Growth,0,97,0,60,40,95,100,0,0
CCOC(=O)C(C)C [Ethyl Isobutyrate],Growth Observed,No Growth,Growth Observed,No Growth,90,100,100,80,67,95,100,80,67
CCCC(=O)OCCC(C)C [Isoamyl Butyrate],No Growth,No Growth,Growth Observed,No Growth,95,100,100,100,90,100,100,90,100
CC(C)CCOC(=O)C(C)C [Isoamyl Isobutyrate],Growth Observed,No Growth,Growth Observed,No Growth,80,100,97,96,67,95,100,80,67
CC(=O)OCC(C)C [Isobutyl Acetate],Growth Observed,Inhibited,Growth Observed,Inhibited,20,57,67,60,20,95,100,0,67
CCCC(=O)OCC(C)C [Isobutyl Butyrate],Growth Observed,No Growth,Growth Observed,No Growth,70,100,33,96,47,100,100,0,33
CC(C)COC(=O)C(C)C [Isobutyl Isobutyrate],Growth Observed,Inhibited,Growth Observed,Inhibited,75,86,0,92,47,95,100,80,50
CC(C)COC(=O)CC(C)C [Isobutyl Isovalerate],Growth Observed,Inhibited,Growth Observed,Inhibited,0,94,100,96,20,95,100,0,67
CCC(=O)OCC(C)C [Isobutyl Propionate],Growth Observed,No Growth,Growth Observed,No Growth,80,100,33,88,40,100,100,80,67
"CC(C)C(=O)O [Isobutyric Acid, reference compound]",Growth Observed,No Growth,Growth Observed,No Growth,40,86,100,90,27,95,100,90,67
CC(C)OC(=O)C(C)C [Isopropyl Isobutyrate],Growth Observed,No Growth,Growth Observed,No Growth,30,43,−33,96,20,95,100,0,33
CCCOC(=O)C(C)C [Propyl Isobutyrate],Growth Observed,Inhibited,Growth Observed,Inhibited,40,97,87,88,33,95,98,50,50
